# Measurements published in US9510598B2, “Nitrogen-containing heterocyclic compounds for plant disease control” (BAYER CROPSCIENCE AG, priority 2012, dated 2016).
# Assay type: physicochemical
# Conditions: HPLC on reversed phase columns, method [a]: pH 2.7, 0.1% formic acid in water and acetonitrile, linear gradient 10% to 95% acetonitrile
row,log P,Structure (SMILES)
1,1.27[a],C#Cc1cnc2ccc(C3=NOC(C)(C(=O)NCc4ccnc(C)c4)C3)cc2c1 (stereo not shown) [compound 685]
2,2.33[a],CC(C)c1cccc(CNC(=O)C2(C)CC(c3ccc4ncc(Br)cc4c3)=NO2)n1 (stereo not shown) [compound 686]
3,2.05[a],C#Cc1cnc2ccc(C3=NOC(C)(C(=O)NCc4ccc(OC)nn4)C3)cc2c1 (stereo not shown) [compound 687]
4,2.25[a],COc1ncc(CNC(=O)C2(C)CC(c3ccc4ncc(Br)cc4c3)=NO2)cn1 (stereo not shown) [compound 688]
5,2.01[a],C#Cc1cnc2ccc(C3=NOC(C)(C(=O)NCc4cnc(OC)nc4)C3)cc2c1 (stereo not shown) [compound 689]
6,1.60[a],Cc1cccc(CNC(=O)C2(C)CC(c3ccc4ncc(Br)cc4c3)=NO2)n1 (stereo not shown) [compound 690]
7,1.43[a],C#Cc1cnc2ccc(C3=NOC(C)(C(=O)NCc4cccc(C)n4)C3)cc2c1 (stereo not shown) [compound 691]
8,1.95[a],CC1(C(=O)NCc2cncnc2)CC(c2ccc3ncc(Br)cc3c2)=NO1 (stereo not shown) [compound 692]
9,1.43[a],Cc1ccncc1CNC(=O)C1(C)CC(c2ccc3ncc(Br)cc3c2)=NO1 (stereo not shown) [compound 693]
10,2.45[a],CCn1cc(NC(=O)C2(C)CC(c3ccc4ncc(Br)cc4c3)=NO2)cn1 (stereo not shown) [compound 694]
11,1.46[a],Cc1cnccc1CNC(=O)C1(C)CC(c2ccc3ncc(Br)cc3c2)=NO1 (stereo not shown) [compound 695]
12,1.59[a],C#Cc1cnc2ccc(C3=NOC(C)(C(=O)NCc4cncc(OC)c4)C3)cc2c1 (stereo not shown) [compound 696]
13,1.74[a],C#Cc1cnc2ccc(C3=NOC(C)(C(=O)NCc4cncnc4)C3)cc2c1 (stereo not shown) [compound 697]
14,1.78[a],COc1cncc(CNC(=O)C2(C)CC(c3ccc4ncc(Br)cc4c3)=NO2)c1 (stereo not shown) [compound 698]
15,2.17[a],C#Cc1cnc2ccc(C3=NOC(C)(C(=O)Nc4cnn(CC)c4)C3)cc2c1 (stereo not shown) [compound 699]
16,2.78[a],C#CC1(C(=O)NCc2cn(CCC)nc2C)CC(c2ccc3ncc(Br)cc3c2)=NO1 (stereo not shown) [compound 700]
17,1.42[a],C#Cc1cnc2ccc(C3=NOC(C)(C(=O)NC(C)CN(C)C)C3)cc2c1 (stereo not shown) [compound 701]
18,1.67[a],COC1(C(=O)NC2CCN(C)CC2)CC(c2ccc3ncc(I)cc3c2)=NO1 (stereo not shown) [compound 702]
19,2.84[a],CCn1cc(CNC(=O)C2(C)CC(c3ccc4ncc(Br)cc4c3)=NO2)c(Cl)n1 (stereo not shown) [compound 704]
20,2.51[a],C#Cc1cnc2ccc(C3=NOC(OC)(C(=O)NCc4cn(CC)nc4Cl)C3)cc2c1 (stereo not shown) [compound 705]
21,2.10[a],CC1(C(=O)NCc2cnccn2)CC(c2ccc3ncc(Br)cc3c2)=NO1 (stereo not shown) [compound 706]
22,4.49[a],Cn1c(C(=NOCc2cccc(NC(=O)C3(C)CC(c4ccc5ncc(Br)cc5c4)=NO3)n2)c2ccccc2)noc1=O (stereo not shown) [compound 707]
23,1.85[a],C#Cc1cnc2ccc(C3=NOC(OC)(C(=O)NCc4cnccn4)C3)cc2c1 (stereo not shown) [compound 708]
24,2.51[a],CCn1cc(CNC(=O)C2(C#N)CC(c3ccc4ncc(Br)cc4c3)=NO2)c(C)n1 (stereo not shown) [compound 709]
25,3.17[a],CC1(C(=O)NCCC2CC2)CC(c2ccc3ncc(Br)cc3c2)=NO1 (stereo not shown) [compound 710]
26,4.39[a],COC1(C(=O)Nc2cccc(CON=C(c3ccccc3)c3noc(=O)n3C)n2)CC(c2ccc3ncc(Br)cc3c2)=NO1 (stereo not shown) [compound 711]
27,2.94[a],COc1ccc(CCNC(=O)C2(OC)CC(c3ccc4ncc(Br)cc4c3)=NO2)cc1OC (stereo not shown) [compound 712]

row,log P,Structure (SMILES)
1,2.39[a],CC1(C(=O)NCCC2CCCO2)CC(c2ccc3ncc(Br)cc3c2)=NO1 (stereo not shown) [compound 713]
2,2.90[a],C=C(C)CNC(=O)C1(C)CC(c2ccc3ncc(Br)cc3c2)=NO1 (stereo not shown) [compound 715]
3,2.68[a],CC(C)(C#N)NC(=O)C1(C)CC(c2ccc3ncc(Br)cc3c2)=NO1 (stereo not shown) [compound 716]
4,3.96[a],C#CC(CC)(CC)NC(=O)C1(C)CC(c2ccc3ncc(Br)cc3c2)=NO1 (stereo not shown) [compound 717]
5,2.64[a],C#CC1(NC(=O)C2(C)CC(c3ccc4ncc(Br)cc4c3)=NO2)CC1 (stereo not shown) [compound 718]
6,2.78[a],C#Cc1cnc2ccc(C3=NOC(OC)(C(=O)NCCC4CC4)C3)cc2c1 (stereo not shown) [compound 719]
7,2.15[a],CC1(C(=O)NCCC#N)CC(c2ccc3ncc(Br)cc3c2)=NO1 (stereo not shown) [compound 720]
8,2.75[a],CCC(C#N)NC(=O)C1(C)CC(c2ccc3ncc(Br)cc3c2)=NO1 (stereo not shown) [compound 721]
9,2.37[a],C#CC1(NC(=O)C2(C)CC(c3ccc4ncc(Br)cc4c3)=NO2)COC1 (stereo not shown) [compound 722]
10,2.04[a],C/C(=N\O)NC(=O)C1(C)CC(c2ccc3ncc(Br)cc3c2)=NO1 (stereo not shown) [compound 723]
11,2.69[a],CCn1cc(CNC(=O)C2(C)CC(c3ccc4ncc(Br)c(Cl)c4c3)=NO2)c(C)n1 (stereo not shown) [compound 735]
12,2.39[a],CC(C)NC(=O)C1(C)CC(c2ccc3ncc(Br)c(Cl)c3c2)=NO1 (stereo not shown) [compound 736]
13,2.86[a],CC(C)NC(=O)C1(C#N)CC(c2ccc3ncc(Br)cc3c2)=NO1 (stereo not shown) [compound 737]
14,2.50[a],CC(C)/C(=N\O)NC(=O)C1(C)CC(c2ccc3ncc(Br)cc3c2)=NO1 (stereo not shown) [compound 738]
15,2.88[a],CC1(C(=O)N/C(=N/O)C(C)(C)C)CC(c2ccc3ncc(Br)cc3c2)=NO1 (stereo not shown) [compound 739]
16,2.35[a],CC1(C(=O)N/C(=N/O)C2CC2)CC(c2ccc3ncc(Br)cc3c2)=NO1 (stereo not shown) [compound 740]
17,2.10[a],CC1(C(=O)N/C(=N/O)c2cccnc2)CC(c2ccc3ncc(Br)cc3c2)=NO1 (stereo not shown) [compound 741]
18,3.37[a],CCC(C)NC(=O)C1(C)CC(c2ccc3ncc(Br)cc3c2)=NO1 (stereo not shown) [compound 742]
19,3.15[a],CC(C)CNC(=O)C1(C)CC(c2ccc3ncc(Br)cc3c2)=NO1 (stereo not shown) [compound 743]
20,2.05[a],CCc1ccc(CNC(=O)C2(C)CC(c3ccc4ncc(Br)cc4c3)=NO2)nc1 (stereo not shown) [compound 744]
21,1.64[a],C#Cc1cnc2ccc(C3=NOC(C)(C(=O)NCc4cc(CC)ccn4)C3)cc2c1 (stereo not shown) [compound 745]
22,1.88[a],CCc1cccc(CNC(=O)C2(C)CC(c3ccc4ncc(Br)cc4c3)=NO2)n1 (stereo not shown) [compound 746]
23,1.82[a],C#Cc1cnc2ccc(C3=NOC(C)(C(=O)NCc4ccc(CC)cn4)C3)cc2c1 (stereo not shown) [compound 747]
24,2.48[a],CC1(C(=O)NCc2cc(C#N)ccn2)CC(c2ccc3ncc(Br)cc3c2)=NO1 (stereo not shown) [compound 748]
25,1.67[a],C#Cc1cnc2ccc(C3=NOC(C)(C(=O)NCc4cccc(CC)n4)C3)cc2c1 (stereo not shown) [compound 749]
26,2.05[a],CC(C)c1ccnc(CNC(=O)C2(C)CC(c3ccc4ncc(Br)cc4c3)=NO2)c1 (stereo not shown) [compound 750]
27,2.20[a],C#Cc1cnc2ccc(C3=NOC(C)(C(=O)NCc4cc(C#N)ccn4)C3)cc2c1 (stereo not shown) [compound 751]

row,log P,Structure (SMILES)
1,1.82[a],CCc1ccnc(CNC(=O)C2(C)CC(c3ccc4ncc(Br)cc4c3)=NO2)c1 (stereo not shown) [compound 752]
2,3.27[a],C#Cc1cnc2ccc(C3=NOC(C)(C(=O)NCC4(C)CCC4)C3)cc2c1 (stereo not shown) [compound 753]
3,2.98[a],CC1(C(=O)NCC2CC(F)(F)C2)CC(c2ccc3ncc(Br)cc3c2)=NO1 (stereo not shown) [compound 754]
4,2.86[a],CC1(C(=O)NC2CC(F)(F)C2)CC(c2ccc3ncc(Br)cc3c2)=NO1 (stereo not shown) [compound 755]
5,1.93[a],C#Cc1cnc2ccc(C3=NOC(C)(C(=O)NCC4CS(=O)(=O)CCO4)C3)cc2c1 (stereo not shown) [compound 756]
6,3.65[a],CC1(CNC(=O)C2(C)CC(c3ccc4ncc(Br)cc4c3)=NO2)CCC1 (stereo not shown) [compound 757]
7,1.54[a],C#Cc1cnc2ccc(C3=NOC(C)(C(=O)NCc4ccnc(O)c4)C3)cc2c1 (stereo not shown) [compound 758]
8,3.48[a],CCC(C)Oc1cc(CNC(=O)C2(C)CC(c3ccc4ncc(Br)cc4c3)=NO2)ccn1 (stereo not shown) [compound 759]
9,3.06[a],C#Cc1cnc2ccc(C3=NOC(C)(C(=O)NCc4ccnc(OC(C)CC)c4)C3)cc2c1 (stereo not shown) [compound 760]
10,1.58[a],CC1(C(=O)NCc2ccnc(NC3CC3)c2)CC(c2ccc3ncc(Br)cc3c2)=NO1 (stereo not shown) [compound 761]
11,2.64[a],C#Cc1cnc2ccc(C3=NOC(C)(C(=O)NCc4ccnc(C(F)(F)F)c4)C3)cc2c1 (stereo not shown) [compound 762]
12,3.09[a],CC(C)Oc1cc(CNC(=O)C2(C)CC(c3ccc4ncc(Br)cc4c3)=NO2)ccn1 (stereo not shown) [compound 763]
13,2.71[a],C#Cc1cnc2ccc(C3=NOC(C)(C(=O)NCc4ccnc(OC(C)C)c4)C3)cc2c1 (stereo not shown) [compound 764]
14,1.72[a],CC1(C(=O)NCc2ccnc(O)c2)CC(c2ccc3ncc(Br)cc3c2)=NO1 (stereo not shown) [compound 765]
15,3.76[a],C#Cc1cnc2ccc(C3=NOC(C)(C(=O)NCCc4ccc(C(F)(F)F)cc4Cl)C3)cc2c1 (stereo not shown) [compound 766]
16,2.51[a],CC(NNC(=O)C1(C)CC(c2ccc3ncc(Br)cc3c2)=NO1)C1CC1 (stereo not shown) [compound 767]
17,3.21[a],C#Cc1cnc2ccc(C3=NOC(C)(C(=O)NC(C4CC4)C4CC4)C3)cc2c1 (stereo not shown) [compound 768]
18,4.21[a],CC1(C(=O)NCCc2ccc(C(F)(F)F)cc2Cl)CC(c2ccc3ncc(Br)cc3c2)=NO1 (stereo not shown) [compound 769]
19,2.21[a],C#Cc1cnc2ccc(C3=NOC(C)(C(=O)NNC(C)C4CC4)C3)cc2c1 (stereo not shown) [compound 770]
20,2.48[a],CC1(C(=O)N2CCOCC2)CC(c2ccc3ncc(Br)cc3c2)=NO1 (stereo not shown) [compound 771]
21,2.34[a],C#Cc1cnc2ccc(C3=NOC(C)(C(=O)NCc4cnn(CC(F)(F)F)c4)C3)cc2c1 (stereo not shown) [compound 772]
22,3.57[a],CC1(C(=O)NC(C2CC2)C2CC2)CC(c2ccc3ncc(Br)cc3c2)=NO1 (stereo not shown) [compound 773]
23,2.18[a],C#Cc1cnc2ccc(C3=NOC(C)(C(=O)N4CCOCC4)C3)cc2c1 (stereo not shown) [compound 774]
24,3.25[a],CC1(C(=O)NCC2CCC2)CC(c2ccc3ncc(Br)cc3c2)=NO1 (stereo not shown) [compound 775]
25,2.57[a],C#Cc1cnc2ccc(C3=NOC(C)(C(=O)NC4CC(F)(F)C4)C3)cc2c1 (stereo not shown) [compound 776]
